In the supplement of paper PMC10307832:

How the values were obtained:
Assay in all cases: relative viability (nuclei count vs DMSO), 5 days (fraction); higher = more cells survive
[1] = system: 201T
Outline: (§1)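 Nuclei were stained with Hoechst during a one-step fixation (final 0.05% Triton X-100, 1% formaldehyde, 1 ug/ml Hoechst) carried out 5 days after dosing, then counted on 4× images. The cells, lung cancer lines in 1536-well plates, had been dosed by pin tool the day after seeding with one drug alone or a fixed anchor-drug dose plus five library-drug doses (not always all listed) in √10 steps. Relative viability is the nuclei count in treated wells divided by that in vehicle wells, and each value is the median of duplicate plates.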

[2] = system: BEN
Outline: as §1

[3] = system: COR-L 105
Outline: as §1

[4] = system: EKVX
Outline: as §1

[5] = system: EPLC-272H
Outline: as §1

[6] = system: H3255
Outline: as §1

[7] = system: HCC-44
Outline: as §1

[8] = system: HCC-827
Outline: as §1

[9] = system: LCLC-97TM1
Outline: as §1

[10] = system: LOU-NH91
Outline: as §1

[11] = system: LU99A
Outline: as §1

[12] = system: NCI-H1437
Outline: as §1

[13] = system: NCI-H1666
Outline: as §1

[14] = system: NCI-H1975
Outline: as §1

[15] = system: NCI-H2085
Outline: as §1

[16] = system: NCI-H2087
Outline: as §1

[17] = system: NCI-H2170
Outline: as §1

[18] = system: NCI-H2342
Outline: as §1

[19] = system: NCI-H647
Outline: as §1

[20] = system: NCI-H650
Outline: as §1

[21] = system: PC-3 [JPC-3]
Outline: as §1

[22] = system: SW 1573
Outline: as §1

Work on Cc1sc2c(c1C)C(c1ccc(Cl)cc1)=N[C@@H](CC(=O)OC(C)(C)C)c1nnc(C)n1-2 [JQ1] + CC(=O)c1c(C)c2cnc(Nc3ccc(N4CCNCC4)cn3)nc2n(C2CCCC2)c1=O [Palbociclib] (partner 0.5 µM) yielded a relative viability ([1]; first compound 0.04 µM) of 0.334, a relative viability ([1]; first compound 0.4 µM) of 0.298 and a relative viability ([1]; first compound 1.265 µM) of 0.313. It also gave a relative viability ([1]; first compound 4 µM) of 0.268, a relative viability ([2]; first compound 0.04 µM) of 0.435 and a relative viability ([2]; first compound 0.1265 µM) of 0.443. For the same molecule, the relative viability ([2]; first compound 0.4 µM) was 0.476, the relative viability ([2]; first compound 1.265 µM) was 0.376 and the relative viability ([2]; first compound 4 µM) was 0.325. For the same molecule, the relative viability ([3]; first compound 0.04 µM) was 0.384, the relative viability ([3]; first compound 0.1265 µM) was 0.429 and the relative viability ([3]; first compound 0.4 µM) was 0.358. The relative viability ([3]; first compound 1.265 µM) was 0.311, the relative viability ([3]; first compound 4 µM) was 0.34 and the relative viability ([4]; first compound 0.04 µM) was 0.429. The relative viability ([4]; first compound 0.1265 µM) was 0.34, the relative viability ([4]; first compound 0.4 µM) was 0.372 and the relative viability ([4]; first compound 1.265 µM) was 0.368. It also gave a relative viability ([4]; first compound 4 µM) of 0.314, a relative viability ([5]; first compound 0.04 µM) of 0.315 and a relative viability ([5]; first compound 0.1265 µM) of 0.252. The relative viability ([5]; first compound 0.4 µM) was 0.308, the relative viability ([5]; first compound 1.265 µM) was 0.26 and the relative viability ([5]; first compound 4 µM) was 0.224. For the same molecule, the relative viability ([6]; first compound 0.04 µM) was 0.303, the relative viability ([6]; first compound 0.1265 µM) was 0.321 and the relative viability ([6]; first compound 0.4 µM) was 0.283. For the same molecule, the relative viability ([6]; first compound 1.265 µM) was 0.247, the relative viability ([6]; first compound 4 µM) was 0.228 and the relative viability ([7]; first compound 0.04 µM) was 0.96. For the same molecule, the relative viability ([7]; first compound 0.1265 µM) was 0.942, the relative viability ([7]; first compound 0.4 µM) was 1.11 and the relative viability ([7]; first compound 1.265 µM) was 0.978. For the same molecule, the relative viability ([7]; first compound 4 µM) was 0.728, the relative viability ([8]; first compound 0.04 µM) was 0.528 and the relative viability ([8]; first compound 0.1265 µM) was 0.388. The relative viability ([8]; first compound 1.265 µM) was 0.279, the relative viability ([8]; first compound 4 µM) was 0.252 and the relative viability ([9]; first compound 0.04 µM) was 0.255. It also gave a relative viability ([9]; first compound 0.1265 µM) of 0.159, a relative viability ([9]; first compound 0.4 µM) of 0.15 and a relative viability ([9]; first compound 1.265 µM) of 0.0928. It also gave a relative viability ([9]; first compound 4 µM) of 0.0931, a relative viability ([10]; first compound 0.04 µM) of 0.493 and a relative viability ([10]; first compound 0.1265 µM) of 0.474. The relative viability ([10]; first compound 0.4 µM) was 0.491, the relative viability ([10]; first compound 1.265 µM) was 0.394 and the relative viability ([10]; first compound 4 µM) was 0.446. For the same molecule, the relative viability ([11]; first compound 0.04 µM) was 0.465, the relative viability ([11]; first compound 0.4 µM) was 0.287 and the relative viability ([11]; first compound 1.265 µM) was 0.185. It also gave a relative viability ([11]; first compound 4 µM) of 0.176, a relative viability ([12]; first compound 0.04 µM) of 0.266 and a relative viability ([12]; first compound 0.1265 µM) of 0.251. The relative viability ([12]; first compound 0.4 µM) was 0.218, the relative viability ([12]; first compound 1.265 µM) was 0.296 and the relative viability ([12]; first compound 4 µM) was 0.217. For the same molecule, the relative viability ([13]; first compound 0.04 µM) was 0.646, the relative viability ([13]; first compound 0.1265 µM) was 0.576 and the relative viability ([13]; first compound 0.4 µM) was 0.591. It also gave a relative viability ([13]; first compound 1.265 µM) of 0.647, a relative viability ([13]; first compound 4 µM) of 0.568 and a relative viability ([14]; first compound 0.04 µM) of 0.607. The relative viability ([14]; first compound 0.1265 µM) was 0.38, the relative viability ([14]; first compound 0.4 µM) was 0.457 and the relative viability ([14]; first compound 1.265 µM) was 0.287. For the same molecule, the relative viability ([14]; first compound 4 µM) was 0.248, the relative viability ([15]; first compound 0.04 µM) was 0.458 and the relative viability ([15]; first compound 0.1265 µM) was 0.427. For the same molecule, the relative viability ([15]; first compound 0.4 µM) was 0.508, the relative viability ([15]; first compound 1.265 µM) was 0.418 and the relative viability ([15]; first compound 4 µM) was 0.462. It also gave a relative viability ([16]; first compound 0.04 µM) of 0.234, a relative viability ([16]; first compound 0.1265 µM) of 0.214 and a relative viability ([16]; first compound 0.4 µM) of 0.153. The relative viability ([16]; first compound 1.265 µM) was 0.157, the relative viability ([16]; first compound 4 µM) was 0.163 and the relative viability ([17]; first compound 0.04 µM) was 0.342. For the same molecule, the relative viability ([17]; first compound 0.1265 µM) was 0.353, the relative viability ([17]; first compound 0.4 µM) was 0.267 and the relative viability ([17]; first compound 1.265 µM) was 0.178. For the same molecule, the relative viability ([17]; first compound 4 µM) was 0.185, the relative viability ([18]; first compound 0.04 µM) was 0.526 and the relative viability ([18]; first compound 0.1265 µM) was 0.501. For the same molecule, the relative viability ([18]; first compound 0.4 µM) was 0.535, the relative viability ([18]; first compound 1.265 µM) was 0.574 and the relative viability ([18]; first compound 4 µM) was 0.538. It also gave a relative viability ([19]; first compound 0.04 µM) of 0.372, a relative viability ([19]; first compound 0.1265 µM) of 0.231 and a relative viability ([19]; first compound 0.4 µM) of 0.13. For the same molecule, the relative viability ([19]; first compound 1.265 µM) was 0.113, the relative viability ([19]; first compound 4 µM) was 0.0792 and the relative viability ([20]; first compound 0.04 µM) was 0.328. The relative viability ([20]; first compound 0.1265 µM) was 0.259, the relative viability ([20]; first compound 0.4 µM) was 0.228 and the relative viability ([20]; first compound 1.265 µM) was 0.176. It also gave a relative viability ([20]; first compound 4 µM) of 0.164, a relative viability ([21]; first compound 0.04 µM) of 0.532 and a relative viability ([21]; first compound 0.1265 µM) of 0.554. For the same molecule, the relative viability ([21]; first compound 0.4 µM) was 0.513, the relative viability ([21]; first compound 1.265 µM) was 0.575 and the relative viability ([21]; first compound 4 µM) was 0.438. For the same molecule, the relative viability ([22]; first compound 0.04 µM) was 0.372, the relative viability ([22]; first compound 0.1265 µM) was 0.274 and the relative viability ([22]; first compound 0.4 µM) was 0.202. It also gave a relative viability ([22]; first compound 1.265 µM) of 0.129 and a relative viability ([22]; first compound 4 µM) of 0.118.
